Experimental findings from US9845297B2, “Antimicrobial compounds and methods of making and using the same” (Melinta Therapeutics, Inc., priority 2009, dated 2017) are described below.

A value given as a limit tells only on which side of the number the result lay.

The test system of this test is Eschericia coli strain ATCC25922. As to the kind of experiment: standard microdilution assay to determine minimum inhibitory concentrations (MICs). The format is cell-based. As to conditions: Escherichia coli, ATCC25922, Eschericia coli strain ATCC25922, standard microdilution assay; read-out: E. coli ATCC25922 MIC. As for the experimental part:
Minimum inhibitory concentrations (MICs) are determined by the microdilution method, typically in a final volume of 100 microliters, according to protocols outlined by The Clinical and Laboratory Standards Institute [CLSI; formerly the National Committee for Clinical Laboratory Standards (NCCLS)]. See CLSI: Methods for dilution antimicrobial susceptibility tests for bacteria that grow aerobically; approved standard-fifth edition. Wayne, Pa.: NCCLS; 2000. The assays can be also be performed in microtiter trays according to conventional methodologies as published by the CLSI. See CLSI. Methods for Dilution Antimicrobial Susceptibility Tests for Bacteria That Grow Aerobically; Approved Standard-Seventh Edition. CLSI Document M7-A7 [ISBN 1-56238-587-9] CLSI, 940 West Valley Road, Suite 1400, Wayne Pa. 19087-1898 USA, 2006).
The compounds of the present invention were tested for antimicrobial activity. The compounds were run against Eschericia coli strain ATCC25922 using a standard microdilution assay to determine minimum inhibitory concentrations (MICs). […] A “N/A” means that data is unavailable. It will be recognized by one skilled in the art that the compounds can be assessed against other bacterial organisms and that the presentation of data for activity against Eschericia coli is illustrative and in no way is intended to limit the scope of the present invention. The compounds of the present invention can be assayed against a range of other microorganisms depending upon the performance activity desired to be gathered. Furthermore, the “+”, “−”, and “N/A” representation and the selection of a cutoff value of 16 micrograms/ml is also illustrative and in no way is intended to limit the scope of the present invention.
Turning to `N=C(N)NCCCNCc1ccc(-c2c[nH]c(NC(=O)Nc3ccccc3OC(F)(F)F)nc2=O)cn1` [Compound 594], the MIC was less than 16 µg/mL.
For the molecule `NCCCNCc1ccc(-c2c[nH]c(NC(=O)NCCc3ccc(Cl)c(Cl)c3)nc2=O)cc1F` [Compound 451], the MIC is less than 16 µg/mL.
For `CN(CCCN(CCCN)Cc1ccc(-c2c[nH]c(NC(=O)Nc3ccccc3OC(F)(F)F)nc2=O)cc1)C(=N)N` [Compound 365], the MIC was less than 16 µg/mL.
Turning to `NCCCN(CCCN)Cc1ccc(-c2c[nH]c(Nc3nc4ccccc4s3)nc2=O)cc1F` [Compound 383], the MIC was greater than 16 µg/mL.
`CN(C)CCN1CCN(c2ccc(C(=O)Nc3ccn(CCC[C@H](CCCNC(=N)N)NCCCN)c(=O)n3)cc2)CC1` [Compound 213]: the MIC was greater than 16 µg/mL.
For `N=C(N)NCCCN(CCCN)Cc1ccc(-c2c[nH]c(NC(=O)Nc3cc(F)c(F)cc3F)nc2=O)cc1` [Compound 348], the MIC was greater than 16 µg/mL.
To `NCCCNCc1ccc(-c2c[nH]c(NC(=O)Nc3cccc(Cl)c3Cl)nc2=O)cc1Cl` [Compound 243] belongs less than 16 µg/mL; to `Cc1c(C(=O)Nc2ccn(CCC[C@H](CCCNC(=N)N)NCCCN)c(=O)n2)ccn1-c1ccc(Cl)cc1` [Compound 158], greater than 16 µg/mL.
For `CCOc1ccc(NC(=O)Nc2nc(=O)c(-c3ccc(CNCCCN)c(F)c3)c[nH]2)c([N+](=O)[O-])c1` [Compound 414], the MIC was greater than 16 µg/mL.
As for `N=C(N)NCCC[C@H](N)CC(=O)N(CCCc1cocn1)C1CNC(NC(N)=O)=NC1=O` (stereo partly shown) [Compound 112], the MIC is greater than 16 µg/mL.
On to `N=C(N)NCCCCCN1CCC(c2c[nH]c(NC(=O)Nc3cc(F)c(F)cc3F)nc2=O)CC1` [Compound 545], for which the MIC is greater than 16 µg/mL.
For the molecule `N=C(N)NCCCNCc1ccc(-c2c[nH]c(NC(=O)Nc3cc(F)c(F)cc3F)nc2=O)cn1` [Compound 585], the MIC is greater than 16 µg/mL.
As for `N=C(N)NCCN(CCCN)Cc1ccc(-c2c[nH]c(NC(N)=O)nc2=O)cc1` [Compound 170], the figure is greater than 16 µg/mL; as for `NCCC[C@H](N)CCCN1CCC(NC(N)=O)NC1=O` (stereo partly shown) [Compound 135], greater than 16 µg/mL.
As for `CN(C)C(=O)CN1CCN(c2ccc(NC(=O)Nc3nc(=O)c(-c4ccc(CN(CCCN)CCCN)cc4)c[nH]3)cc2)CC1` [Compound 211], the figure is greater than 16 µg/mL; as for `CSCCNCc1ccc(-c2c[nH]c(NC(=O)NCc3ccc(F)cc3)nc2=O)cc1Cl` [Compound 267], greater than 16 µg/mL.
As for `NCCCNCc1ccc(-c2c[nH]c(NC(=O)Nc3c(F)c(F)c(F)c(F)c3F)nc2=O)cc1F` [Compound 449], the figure is greater than 16 µg/mL; as for `CN1CCN(c2ccc(NC(=O)Nc3ccn(-c4ccc(CN(CCCN)CCCNC(=N)N)cc4)c(=O)n3)cc2)CC1` [Compound 222], less than 16 µg/mL.
In the case of `NCCCNCc1ccc(-c2c[nH]c(NC(=O)NCCc3ccc(F)cc3)nc2=O)cc1F` [Compound 435], the MIC is greater than 16 µg/mL.
As for `N=C(N)NCCCN1CCN(c2c[nH]c(NC(=O)Nc3ccccc3OC(F)(F)F)nc2=O)CC1` [Compound 422], the figure is greater than 16 µg/mL; as for `NCCCNCc1ccc(-c2c[nH]c(NC(=O)Nc3ccc(F)c(F)c3F)nc2=O)cc1F` [Compound 462], greater than 16 µg/mL.
As for `NCCCNCc1ccc(-c2c[nH]c(NC(=O)Nc3cccc4nsnc34)nc2=O)cc1F` [Compound 445], the figure is greater than 16 µg/mL.
Turning to `N=C(N)NCCCN1CCCC(c2c[nH]c(NC(=O)Nc3ccccc3OC(F)(F)F)nc2=O)CC1` (stereo not shown) [Compound 517], the MIC is greater than 16 µg/mL.
As for `CSCCCNCc1ccc(-c2c[nH]c(NC(=O)Nc3ccccc3OC(F)(F)F)nc2=O)cc1` [Compound 282], the figure is greater than 16 µg/mL; as for `O=C(O)CCCNCc1ccc(-c2c[nH]c(NC(=O)Nc3ccccc3OC(F)(F)F)nc2=O)cc1` [Compound 328], greater than 16 µg/mL; as for `N=C(N)NCCCCCN1CCN(c2c[nH]c(NC(=O)Nc3cc(F)c(F)cc3F)nc2=O)CC1` [Compound 505], greater than 16 µg/mL.
As for `CN(CCCNCc1ccc(-c2c[nH]c(NC(=O)Nc3ccccc3OC(F)(F)F)nc2=O)cc1)C(=N)N` [Compound 346], the figure is less than 16 µg/mL; as for `N=C(N)NCCCC(CCCn1ccc(NC(=O)c2ccc(N3CCOCC3)cc2)nc1=O)NCCCN` (stereo not shown) [Compound 189], greater than 16 µg/mL; as for `O=C(Nc1nc(=O)c(-c2ccc(CNCCC3CC3)cc2)c[nH]1)Nc1ccccc1OC(F)(F)F` [Compound 441], greater than 16 µg/mL.
Take `NCCCCn1ccc(N)nc1=O` [Compound 129]: the MIC was greater than 16 µg/mL.
With `N=C(N)NCCCNCc1ccc(-c2c[nH]c(NC(=O)NC3CN(C(=O)c4cc(F)cc(F)c4F)C3)nc2=O)cc1` [Compound 780], the MIC was greater than 16 µg/mL.
As to `Cn1ccnc1CN(CCCN)Cc1ccc(-c2c[nH]c(NC(=O)Nc3ccccc3OC(F)(F)F)nc2=O)cc1` [Compound 345], the MIC was greater than 16 µg/mL.
As to `N=C(N)NCCCNCc1ccc(-c2c[nH]c(NC(=O)NC3CN(C(=O)Nc4cc(F)c(F)cc4F)C3)nc2=O)cc1` [Compound 747], the MIC was less than 16 µg/mL.
As for `Cc1ncc(-c2cccc(NC(=O)Nc3nc(=O)c(-c4ccc(CNCCCN)c(F)c4)c[nH]3)c2)s1` [Compound 446], the figure is greater than 16 µg/mL.
Consider `NCCC[C@H](N)CCCn1cnc(N)nc1=O` [Compound 113], for which the MIC was greater than 16 µg/mL.
Consider `Cc1c(Cl)cc2nc(Nc3nc(=O)c(-c4ccc(CN(CCCN)CCCN)c(F)c4)c[nH]3)oc2c1Cl` [Compound 472], for which the MIC was greater than 16 µg/mL.
For `NCCCN1CCN(CCc2c[nH]c(NC(=O)Nc3ccccc3OC(F)(F)F)nc2=O)CC1` [Compound 369], the MIC was greater than 16 µg/mL.
As for `N=C(N)NCCCCN1CCC(c2c[nH]c(NC(=O)Nc3ccccc3OC(F)(F)F)nc2=O)CC1` [Compound 548], the figure is greater than 16 µg/mL; as for `N=C(N)NCCCC(CCCn1ccc(NC(=O)Nc2ccc(N3CCCCC3)cc2)nc1=O)NCCCN` (stereo not shown) [Compound 186], greater than 16 µg/mL; as for `NCCCN(CCCN)Cc1ccc(-c2c[nH]c(Nc3nc4ccccc4o3)nc2=O)cc1F` [Compound 363], greater than 16 µg/mL.
As for `N=C(N)NCCCN1CCCN(c2c[nH]c(NC(=O)Nc3ccccc3OC(F)(F)F)nc2=O)CC1` [Compound 491], the figure is greater than 16 µg/mL; as for `NCCCN1CCC[C@@H](NC(=O)Nc2nc(=O)c(-c3ccc(CN)cc3)c[nH]2)C1` [Compound 1304], greater than 16 µg/mL.
As for `NCCCNCc1ccc(-c2c[nH]c(NC(=O)NCCc3c(Cl)cccc3Cl)nc2=O)cc1F` [Compound 437], the figure is greater than 16 µg/mL; as for `NCCCN(CCC1CC1)Cc1ccc(-c2c[nH]c(NC(=O)Nc3ccccc3OC(F)(F)F)nc2=O)cc1` [Compound 397], greater than 16 µg/mL; as for `CN(C(=O)C[C@H](CCCNC(=N)N)NC(=O)CCNC(=N)N)C1CNC(NC(N)=O)=NC1=O` (stereo partly shown) [Compound 107], greater than 16 µg/mL.
On to `NCCCCCN1CCN(c2c[nH]c(NC(=O)Nc3cc(F)c(F)cc3F)nc2=O)CC1` [Compound 504], for which the MIC is greater than 16 µg/mL.
As for `N=C(N)NCCCNCc1ccc(-c2c[nH]c(NC(=O)NC3CN(Cc4cc(F)c(F)cc4F)C3)nc2=O)cc1` [Compound 712], the figure is greater than 16 µg/mL; as for `O=C(Nc1nc(=O)c(-c2ccc(CNCCCCO)cc2)c[nH]1)Nc1cc(F)c(F)cc1F` [Compound 341], greater than 16 µg/mL.
Turning to `NCCCNCc1ccc(-c2c[nH]c(NC(=O)NCc3ccc(F)cc3)nc2=O)cc1F` [Compound 255], the MIC was greater than 16 µg/mL.
